According to patent US20190127381A1, “SUBSTITUTED FUSED PYRIMIDINONE COMPOUNDS” (TORRENT PHARMACEUTICALS LIMITED, priority 2016, published 2019):

Assays:
[1] = molecular target: T1, purified recombinant human PI3K enzyme γ (Homo sapiens, UniProt P48736); assay: Inhibition of PI3-Kinase enzymatic activity (HTRF enzyme assay), γ; format: biochemical; details: 1 μM compound; PI3K γ 100 ng/well; PIP2 10 μM; ATP 50 μM; read-out: Percentage inhibition of PI3K activity, γ
T1 construct: purchased Invitrogen, USA
Method in brief: (§1)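 HTRF assay with compound at 1 μM (1.0% DMSO), recombinant human PI3Kδ (50 ng/well) or γ (100 ng/well) and PIP2 (10 μM), preincubated 15 min at room temperature. ATP (δ 200 μM, γ 50 μM) was then added for 30 min at room temperature. Percent inhibition was derived from the 665/615 nm signal ratio.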

[2] = molecular target: T2, purified recombinant human PI3K enzyme δ (Homo sapiens, UniProt O00329); assay: Inhibition of PI3-Kinase enzymatic activity (HTRF enzyme assay), δ; format: biochemical; details: 1 μM compound; PI3K δ 50 ng/well; PIP2 10 μM; ATP 200 μM; read-out: Percentage inhibition of PI3K activity, δ
T2 construct: purchased Invitrogen, USA
Method in brief: as §1

[3] = system: OVA induced pulmonary inflammatory cell accumulation in BAL fluid; assay: Ovalbumin (OVA) model of airway inflammation (asthma) in mice; format: in vivo; details: OVA challenge
Protocol: Allergen chicken egg ovalbumin (OVA) model, which shares features similar to human allergic asthma, including the presence of eosinophilic and lymphocytic lung inflammation, is frequently used for model for asthma. Ovalbumin is an inert protein that is not intrinsically immunogenic and therefore needs to be injected systemically in the presence of an adjuvant, typically aluminum hydroxide (alum), to induce Th2-driven response in mice (Curr. Protoc. Mouse Biol. 6:169-184, 2016).
Ovalbumin (20 μg) (OVA, Sigma Aldrich, St. Louis, Mo.), emulsified with inject alum (1 mg, 0.2 mL) was administered in mice intraperitoneally (i.p.) on days 1 and 14 for sensitization, and then challenged with OVA (0.5% w/v) exposure for 30 minutess using nebulizer on days 21, 22 and 23 in Compound no 44 treated and vehicle control animals. Saline control mice received normal saline as sensitization and challenge dose in similar fashion.
Lung delivery of compound of present invention was achieved by whole body aerosol exposure using nebulizer for 25 minutes in a chamber. Mice were divided in different dose groups and exposed in a chamber for 25 minutes with vehicle or Compound no 44 (1 mg/ml or 3 mg/ml). Test compound/vehicle was administered once daily for 5 days starting from day 20 till day 24. On each challenge day treatment was administered 2 hr before OVA challenge. Bronchoalveolar lavage (BAL) was performed 48 hr post last OVA exposure (i.e. on day 25).
Trachea of animal was cannulated using catheter. Phosphate Buffer Saline (PBS) was used as lavage fluid. A volume of 0.5 ml was gently instilled and withdrawn and collected in microcentrifuge tube placed on ice. This procedure was repeated further 3 times.
(§2) Lavage fluid was separated from cells by centrifugation and supernatant separated. The cell pallet was resuspended in known volume of PBS. Cells in aliquot were stained using Turk solution and total cell numbers were calculated by counting Turk stained aliquot under microscope using haemocytometer.
The residual cell suspension was resuspended with PBS and slides prepared using cyto centrifuge technique (Cytospin 4, Thermo Shandon). The slides were then fixed with methanol, air dried and stained with May Grunwald Giemsa stain. Up to 300 cells were counted and differentiated using standard morphometric techniques under light microscopy.
All results are presented at individual data for each animal and mean value calculated for each group. Percentage inhibition for each cell type is calculated as below.
% inhibition=[(Vehicle treatment−Drug treatment)/(Vehicle treatment−Saline treatment)]*100

[4] = system: cigarette smoke induced Neutrophil accumulation in BAL Fluid; assay: Acute guinea pig model of airway inflammation (tobacco smoke, COPD); format: in vivo; details: for % Inhibition of neutrophil against vehicle group: exposure 56 minutes; for Neutrophil (*10^6 cells/animal) in BAL fluid: whole body aerosol exposure 56 minutes, day 6 to day 11, Mean ± SEM
Source text: The tobacco smoke induced airway inflammation model is used for in vivo efficacy of compound. Many investigators have used acute tobacco smoke (TS) exposure in rodents as models of airway inflammation for quick screening of anti-inflammatory therapies for COPD (J Pharmacol Exp Ther. 2008; 324(3):921-9; J Pharmacol Exp Ther. 2010; 332(3):764-75; Journal of Inflammation 2013, 10(Suppl 1):31 and Eur Respir J Suppl 2006; 663s:3850). Given its position as predominant cause of COPD, animal models using TS exposure would appear to be the logical choice for investigation (Respir Res. 2004; 2;5:18).
Guinea pigs were exposed to tobacco smoke (TS) in an acrylic chamber. Animals were exposed to TS from 5, 10, 15 cigarettes on day 1, day 2, day 3 respectively. From day 4 onwards till day 11, animals were exposed to TS from 15 cigarettes per day. On 11 days of exposure of guinea pig to TS, significant inflammatory cell recruitment, predominantly neutrophils, to lungs was observed as compared to air exposed control guinea pig (BALF neutrophil levels, 0.59±0.15*10^6 cells/animal in air control group vs 8.3±1.4*10^6cells/animal in smoke exposed vehicle group)
Lung delivery of test compound was achieved by whole body aerosol exposure using nebulizer for 56 minutes in a chamber. Guinea pig were divided in different dose groups and exposed in a chamber for 56 minutes with vehicle or Compound No. 39 (1 mg/ml or 3 mg/ml). A total quantity of 6.0 ml of either vehicle or test compound formulation was nebulized in chambers to respective groups over 56 mins period. Test compound was administered 2 hr prior to TS exposure from day 6 to day 11. Bronchoalveolar lavage (BAL) was performed 24 hr post last TS exposure.
Trachea of animal was cannulated using catheter. Phosphate Buffer Saline (PBS) was used as lavage fluid. A volume of 5.0 ml was gently instilled and withdrawn and collected in microcentrifuge tube placed on ice. This procedure was repeated further 5 times.
as §2
The residual cell suspension was resuspended and slides prepared using cyto centrifuge technique (Cytospin 4, Thermo Shandon). […] Up to 300 cells were counted and differentiated using standard morphometric techniques under light microscopy.
All results are presented at individual data for each animal and mean value calculated for each group. Percentage inhibition for the neutrophil was calculated for Compound No 39 treatment group against vehicle group.

[5] = 1 mg/ml nebulized 25 minutes once daily for 5 days
[6] = 3 mg/ml nebulized 25 minutes once daily for 5 days

T1 sequence (P48736 whole entry): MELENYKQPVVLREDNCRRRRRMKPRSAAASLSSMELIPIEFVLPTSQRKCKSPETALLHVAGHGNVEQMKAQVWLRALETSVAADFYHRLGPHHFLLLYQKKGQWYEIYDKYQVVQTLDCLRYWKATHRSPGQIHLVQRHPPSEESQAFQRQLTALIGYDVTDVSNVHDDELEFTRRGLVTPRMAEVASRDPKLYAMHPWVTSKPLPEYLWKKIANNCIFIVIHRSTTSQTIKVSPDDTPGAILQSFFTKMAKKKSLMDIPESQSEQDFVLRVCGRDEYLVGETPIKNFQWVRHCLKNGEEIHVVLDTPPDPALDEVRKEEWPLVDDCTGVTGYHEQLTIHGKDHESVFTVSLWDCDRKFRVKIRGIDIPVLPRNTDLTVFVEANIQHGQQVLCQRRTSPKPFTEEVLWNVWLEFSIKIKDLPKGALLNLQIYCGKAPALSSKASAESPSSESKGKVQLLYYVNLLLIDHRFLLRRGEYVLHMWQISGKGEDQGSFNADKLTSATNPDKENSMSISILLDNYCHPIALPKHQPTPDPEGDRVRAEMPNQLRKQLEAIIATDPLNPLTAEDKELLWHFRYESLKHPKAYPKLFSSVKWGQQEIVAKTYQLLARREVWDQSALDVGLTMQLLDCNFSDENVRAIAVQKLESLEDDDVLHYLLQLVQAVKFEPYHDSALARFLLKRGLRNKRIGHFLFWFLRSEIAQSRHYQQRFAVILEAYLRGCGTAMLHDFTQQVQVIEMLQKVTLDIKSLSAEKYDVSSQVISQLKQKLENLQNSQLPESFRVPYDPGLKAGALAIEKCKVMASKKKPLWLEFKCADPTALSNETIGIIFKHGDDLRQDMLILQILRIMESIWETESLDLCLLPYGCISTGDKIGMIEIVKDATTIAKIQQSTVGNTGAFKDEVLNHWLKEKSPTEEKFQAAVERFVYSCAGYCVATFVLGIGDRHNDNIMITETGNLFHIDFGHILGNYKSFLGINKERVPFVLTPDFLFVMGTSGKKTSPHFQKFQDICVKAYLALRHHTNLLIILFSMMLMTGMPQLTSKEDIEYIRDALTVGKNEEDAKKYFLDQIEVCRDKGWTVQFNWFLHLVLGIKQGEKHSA
T2 sequence (O00329 whole entry): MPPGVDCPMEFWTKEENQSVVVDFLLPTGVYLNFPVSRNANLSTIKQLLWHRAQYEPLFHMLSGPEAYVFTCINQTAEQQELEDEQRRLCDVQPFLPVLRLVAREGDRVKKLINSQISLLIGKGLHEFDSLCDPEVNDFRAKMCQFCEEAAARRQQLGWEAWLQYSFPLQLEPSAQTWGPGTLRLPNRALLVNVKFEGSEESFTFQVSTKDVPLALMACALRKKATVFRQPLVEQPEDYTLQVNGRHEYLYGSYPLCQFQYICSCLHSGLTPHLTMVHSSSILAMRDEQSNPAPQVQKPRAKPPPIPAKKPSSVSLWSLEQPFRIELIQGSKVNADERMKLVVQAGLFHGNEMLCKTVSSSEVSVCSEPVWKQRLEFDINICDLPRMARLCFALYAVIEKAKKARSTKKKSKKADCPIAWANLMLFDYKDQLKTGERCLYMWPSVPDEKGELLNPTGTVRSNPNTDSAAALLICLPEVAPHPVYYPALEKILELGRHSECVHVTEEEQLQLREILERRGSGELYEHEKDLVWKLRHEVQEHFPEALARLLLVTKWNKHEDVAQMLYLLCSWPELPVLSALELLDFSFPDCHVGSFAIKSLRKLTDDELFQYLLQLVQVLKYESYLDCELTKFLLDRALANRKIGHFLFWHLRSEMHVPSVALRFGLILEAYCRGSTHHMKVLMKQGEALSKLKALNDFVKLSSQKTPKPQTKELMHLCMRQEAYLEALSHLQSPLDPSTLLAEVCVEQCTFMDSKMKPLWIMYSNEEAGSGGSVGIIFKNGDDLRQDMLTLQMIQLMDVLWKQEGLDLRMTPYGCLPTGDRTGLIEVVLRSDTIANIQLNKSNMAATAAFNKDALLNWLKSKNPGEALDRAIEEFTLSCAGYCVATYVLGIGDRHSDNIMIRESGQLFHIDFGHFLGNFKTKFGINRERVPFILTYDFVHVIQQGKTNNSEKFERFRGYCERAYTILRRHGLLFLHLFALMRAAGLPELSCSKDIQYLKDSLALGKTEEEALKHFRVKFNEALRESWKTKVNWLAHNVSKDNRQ
T2 sequence (P27986 whole entry partner): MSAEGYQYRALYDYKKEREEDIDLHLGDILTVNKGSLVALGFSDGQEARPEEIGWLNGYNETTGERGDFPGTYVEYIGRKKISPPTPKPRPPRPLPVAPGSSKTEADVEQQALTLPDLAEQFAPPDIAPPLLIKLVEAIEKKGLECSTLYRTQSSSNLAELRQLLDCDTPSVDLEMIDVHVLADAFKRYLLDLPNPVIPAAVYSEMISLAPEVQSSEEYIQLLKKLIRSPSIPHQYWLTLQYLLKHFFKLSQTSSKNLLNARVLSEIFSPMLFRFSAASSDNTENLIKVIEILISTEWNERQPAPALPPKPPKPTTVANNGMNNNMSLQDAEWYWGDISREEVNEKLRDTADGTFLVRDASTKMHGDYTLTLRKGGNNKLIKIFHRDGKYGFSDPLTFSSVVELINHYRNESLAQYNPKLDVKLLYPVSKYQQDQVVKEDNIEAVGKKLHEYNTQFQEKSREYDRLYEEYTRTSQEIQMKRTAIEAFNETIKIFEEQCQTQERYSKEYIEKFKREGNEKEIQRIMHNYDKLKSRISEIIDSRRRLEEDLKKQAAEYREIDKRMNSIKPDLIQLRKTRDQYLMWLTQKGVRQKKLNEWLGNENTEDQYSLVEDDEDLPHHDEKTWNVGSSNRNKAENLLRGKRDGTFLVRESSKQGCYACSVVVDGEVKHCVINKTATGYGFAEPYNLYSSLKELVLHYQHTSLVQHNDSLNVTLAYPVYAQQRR

Row | Structure (SMILES) | inhibition at 1 µM [1] [%] | inhibition at 1 µM [2] [%] | reduced eosinophil influx (% inhibition) in BAL fluid [3, 5] [%] | reduced lymphocyte influx (% inhibition) in BAL fluid [3, 5] [%] | reduced eosinophil influx (% inhibition) in BAL fluid [3, 6] [%] | reduced lymphocyte influx (% inhibition) in BAL fluid [3, 6] [%] | % Inhibition of neutrophil against vehicle group ([4]; 1 mg/ml nebulized) [%] | Neutrophil (*10^6 cells/animal) in BAL fluid ([4]; 1 mg/ml nebulized) | % Inhibition of neutrophil against vehicle group ([4]; 3 mg/ml nebulized) [%] | Neutrophil (*10^6 cells/animal) in BAL fluid ([4]; 3 mg/ml nebulized)
1 | Cn1cc(-c2cccc3nc(Cn4nc(-c5ccc(O)c6c5CC(C)(C)O6)c5c(N)ncnc54)n(-n4cccc4)c(=O)c23)cn1 [Compound No. 44, 2-{[4-amino-3-(7-hydroxy-2,2-dimethyl-2,3-dihydro-1-benzofuran-4-yl)-1H-pyrazolo[3,4-d]pyrimidin-1-yl]methyl}-5-(1-methyl-1H-pyrazol-4-yl)-3-(1H-pyrrol-1-yl)quinazolin-4(3H)-one] | 80 to 100 | 80 to 100 | 42 | 27 | 56 | 39 |  |  |  | 
2 | Cn1cc(-c2cccc3nc(Cn4nc(-c5ccc(O)c6c5CC(C)(C)O6)c5c(N)ncnc54)n(C4(c5ccsc5)CC4)c(=O)c23)cn1 [compound 69, 2-{[4-amino-3-(7-hydroxy-2,2-dimethyl-2,3-dihydro-1-benzofuran-4-yl)-1H-pyrazolo[3,4-d]pyrimidin-1-yl]methyl}-5-(1-methyl-1H-pyrazol-4-yl)-3-[1-(thiophen-3-yl)cyclopropyl]quinazolin-4(3H)-one] | 60 to 80 | 80 to 100 |  |  |  |  |  |  |  | 
3 | Nc1ncnc2c1c(-c1ccc(O)c3c1CCC3)nn2Cc1nc2cccc(Cl)c2c(=O)n1-n1cccc1 [compound 1, 2-{[4-amino-3-(7-hydroxy-2,3-dihydro-1H-inden-4-yl)-1H-pyrazolo[3,4-d]pyrimidin-1-yl]methyl}-5-chloro-3-(1H-pyrrol-1-yl)quinazolin-4(3H)-one] | 80 to 100 | 80 to 100 |  |  |  |  |  |  |  | 

Further lines, with some results ahead:

Row | inhibition at 1 µM [1] [%] | inhibition at 1 µM [2] [%] | Structure (SMILES) | reduced eosinophil influx (% inhibition) in BAL fluid [3, 5] [%] | reduced lymphocyte influx (% inhibition) in BAL fluid [3, 5] [%] | reduced eosinophil influx (% inhibition) in BAL fluid [3, 6] [%] | reduced lymphocyte influx (% inhibition) in BAL fluid [3, 6] [%] | % Inhibition of neutrophil against vehicle group ([4]; 1 mg/ml nebulized) [%] | Neutrophil (*10^6 cells/animal) in BAL fluid ([4]; 1 mg/ml nebulized) | % Inhibition of neutrophil against vehicle group ([4]; 3 mg/ml nebulized) [%] | Neutrophil (*10^6 cells/animal) in BAL fluid ([4]; 3 mg/ml nebulized)
4 | 60 to 80 | 80 to 100 | COc1ccc(-c2nn(Cc3nc4cccc(C)c4c(=O)n3-n3c(C)ccc3C)c3ncnc(N)c23)c2c1OC(C)(C)C2 [compound 78, 2-{[4-amino-3-(7-methoxy-2,2-dimethyl-2,3-dihydro-1-benzofuran-4-yl)-1H-pyrazolo[3,4-d]pyrimidin-1-yl]methyl}-3-(2,5-dimethyl-1H-pyrrol-1-yl)-5-methylquinazolin-4(3H)-one] |  |  |  |  |  |  |  | 
5 | 80 to 100 | 80 to 100 | Cc1cccc2nc(Cn3nc(-c4ccc(O)c5c4CC(C)(C)O5)c4c(N)ncnc43)n(-n3c(C)ccc3C)c(=O)c12 [Compound No. 39, 2-{[4-amino-3-(7-hydroxy-2,2-dimethyl-2,3-dihydro-1-benzofuran-4-yl)-1H-pyrazolo[3,4-d]pyrimidin-1-yl]methyl}-3-(2,5-dimethyl-1H-pyrrol-1-yl)-5-methylquinazolin-4(3H)-one] |  |  |  |  | 22 | 6.5 ± 3.2 *10^6 cells/animal | 68 | 2.7 ± 1.4 *10^6 cells/animal
